Results published in patent publication US10413545B2, “Imidazolin-5-one derivative useful as FASN inhibitors for the treatment of cancer” (Janssen Pharmaceutica NV, priority 2013, dated 2019).
Read-outs that look alike come from different tables or passages of the source.

Legend:
Format in all cases: cell-based
[1] = system: LNCaP_Vancouver prostate cells; assay: In Vitro LNCaP Vancouver Prostate Cell Proliferation Assay in Lipid Reduced Medium; conditions: Prostate cell; 10% lipid reduced serum, 96 h, ATP-glow luminescence; read-out: pIC50 LNCaP_Vancouver prostate cell (converted)
Method: LNCaP_Vancouver prostate cells were obtained from the Vancouver Prostate Cancer Centre.
The next day 10 μl of test compound/DMSO diluted in medium was added (3E-5M, 1E-5M, 3E-6M,1E-6M, 3E-7M, 1E-7M, 3E-8M, 1E-8M final concentration). Compounds were tested in duplicate. After 96 h incubation at 37° C., 5% CO2 25 μl ATP-glow mix was added. The plate was incubated for 30 min at 37° C. and luminescence was measured with the Envision.
Analysis: Determination of pIC50 Values
pIC50 values were calculated as follows. Raw data generated by the instruments were normalized to % Controlmin values, which were calculated as: % Controlmin=100*(x−mLC)/(mHC−mLC),
where mLC and mHC are the means of the low control wells and high control wells on the plate, after manual exclusion of outliers. The relation between the % Controlmin values and concentration was fitted to a 4-parameter logistic curve using a non-linear least squares regression method to determine the pIC50 value. Outlying data points were excluded manually to get a correct fit. The pIC50 corresponds to −log 10(IC50), if the IC50 is expressed in molar units (http://www.ncbi.nlm.nih.qovibooks/NBK91994). The IC50 parameter was always determined by non-linear regression, but one or more of the other parameters may have been held fixed on a relevant input value, such as 0 for the bottom values.

A2780 ovarian cells = assay: A2780 Ovarian Cell Proliferation Assay in Lipid Reduced Medium, with and without Palmitate (MTT); conditions: Homo sapiens, 10% lipid-reduced serum, 96 h
[2] = system: PC-3M-Luc-C6 prostate cells; assay: In Vitro PC-3M-Luc-C6 Prostate Cell Proliferation Assay in Lipid Reduced Medium; conditions: Prostate cell, read-out: pIC50 PC-3M-Luc-C6 prostate cell (converted); 10% lipid reduced serum, 96 h, ATP-glow luminescence
[3] = 25 μM palmitate added (control), read-out: pIC50 With Palmitate (converted)
[4] = no palmitate, read-out: pIC50 Without Palmitate (converted)

| SMILES | IC50 [1] | IC50 (A2780 ovarian cells; [3]) | IC50 (A2780 ovarian cells; [4]) | IC50 [2] |
| --- | --- | --- | --- | --- |
| CC1(C)N=C(c2ccc(-c3ccc4cc(F)ccc4c3)cc2)N(CC2CN(C(=O)C3CC3)C2)C1=O [Compound 29, 1-((1-(cyclopropanecarbonyl)azetidin-3-yl)methyl)-2-(4-(6-fluoronaphthalen-2-yl)phenyl)-4,4-dimethyl-1H-imidazol-5(4H)-one] | ~2820 nM | > 10000 nM | 1230 nM | 1290 nM |
| CC1(C)N=C(c2ccc(-c3ccc4cc(F)ccc4c3)cc2)N(C[C@@H]2CCN(C(=O)C3CC3)C2)C1=O [Compound 30, (R)-1-((1-(cyclopropanecarbonyl)pyrrolidin-3-yl)methyl)-2-(4-(6-fluoronaphthalen-2-yl)phenyl)-4,4-dimethyl-1H-imidazol-6(4H)-one] | 3390 nM | > 10000 nM | 1230 nM | 490 nM |
| CC1(C)N=C(c2ccc(-c3cccc4ncccc34)cc2)N(C[C@@H]2CCN(C(=O)C3CC3)C2)C1=O [Compound 31, (R)-1-((1-(cyclopropanecarbonyl)pyrrolidin-3-yl)methyl)-4,4-dimethyl-2-(4-(quinolin-5-yl)phenyl)-1H-1-imidazol-5(4H)-one] | 912 nM | > 10000 nM | ~1000 nM | ~617 nM |
| Cn1ncc2cc(-c3ccc(C4=NC(C)(C)C(=O)N4CC4CN(C(=O)C5CC5)C4)c(F)c3)ccc21 [Compound 32, 1-((1-(cyclopropanecarbonyl)azetidin-3-yl)methyl)-2-(2-fluoro-4-(1-methyl-1H-indazol-5-yl)phenyl)-4,4-dimethyl-1H-imidazol-5(4H)-one] | 4680 nM | > 10000 nM | 977 nM | 1480 nM |
| CC1(C)N=C(c2ccc(-c3nc4ccccc4s3)cc2F)N(CC2CN(C(=O)C3CC3)C2)C1=O [Compound 34, 2-(4-(benzo[d]thiazol-2-yl)-2-fluorophenyl)-1-((1-(cyclopropanecarbonyl)azetidin-3-yl)methyl)-4,4-dimethyl-1H-imidazol-5(4H)-one] | 2630 nM | > 10000 nM | 1000 nM | 832 nM |
| CC1(C)N=C(c2ccc(-c3ccc4cccnc4c3)cc2F)N(CC2CN(C(=O)C3CC3)C2)C1=O [Compound 39, 1-((1-(cyclopropanecarbonyl)azetidin-3-yl)methyl)-2-(2-fluoro-4-(quinolin-7-yl)phenyl)-4,4-dimethyl-1H-imidazol-5(4H)-one] | 269 nM | > 10000 nM | ~91.2 nM | 95.5 nM |
| CC1(C)N=C(c2ccc(-c3ccc4cccc(F)c4c3)cc2)N(C[C@@H]2CCN(C(=O)C3CC3)C2)C1=O [Compound 41, (R)-1-((1-(cyclopropanecarbonyl)pyrrolidin-3-yl)methyl)-2-(4-(8-fluoronaphthalen-2-yl)phenyl)-4,4-dimethyl-1H-imidazol-5(4H)-one] | 1150 nM | > 10000 nM | ~347 nM | 417 nM |
| CC1(C)N=C(c2ccc(-c3ccc4cncnc4c3)cc2)N(C[C@@H]2CCN(C(=O)C3CC3)C2)C1=O [Compound 42, (R)-1-((1-(cyclopropanecarbonyl)pyrrolidin-3-yl)methyl)-4,4-dimethyl-2-(4-(quinazolin-7-yl)phenyl)-1H-imidazol-5(4H)-one] | 1000 nM | > 10000 nM | ~191 nM | 417 nM |
| CC1(C)N=C(c2ccc(-c3ccc4cncnc4c3)cc2F)N(C[C@@H]2CCN(C(=O)C3CC3)C2)C1=O [Compound 44, (R)-1-((1-(cyclopropanecarbonyl)pyrrolidin-3-yl)methyl)-2-(2-fluoro-4-(quinazolin-7-yl)phenyl)-4,4-dimethyl-1H-imidazol-5(4H)-one] | 389 nM | > 10000 nM | 46.8 nM | 47.9 nM |
| Cn1cc(-c2ccc(-c3ccc(C4=NC(C)(C)C(=O)N4C[C@@H]4CCN(C(=O)C5CC5)C4)c(F)c3)cc2)cn1 [Compound 45] | 117 nM | > 10000 nM | 26.3 nM | 67.6 nM |
| CC1(C)N=C(c2ccc(-c3ccc4cccnc4c3)cc2F)N(C[C@@H]2CCN(C(=O)C3CC3)C2)C1=O [Compound 49, (R)-1-((1-(cyclopropanecarbonyl)pyrrolidin-3-yl)methyl)-2-(2-fluoro-4-(quinolin-7-yl)phenyl)-4,4-dimethyl-1H-imidazol-5(4H)-one] | 200 nM | > 10000 nM | 14.1 nM | ~24 nM |
| CC1(C)N=C(c2ccc(-c3nc4ccccc4o3)cc2F)N(C[C@@H]2CCN(C(=O)C3CC3)C2)C1=O [Compound 51, (R)-2-(4-(benzo[d]oxazol-2-yl)-2-fluorophenyl)-1-((1-(cyclopropanecarbonyl)pyrrolidin-3-yl)methyl)-4,4-dimethyl-1H-imidazol-5(4H)-one] | 794 nM | > 10000 nM | 288 nM | 324 nM |
| CC1(C)N=C(c2ccc(-c3nc4ccccc4o3)cc2F)N(CC2CN(C(=O)C3CC3)C2)C1=O [Compound 52, 2-(4-(benzo[d]oxazol-2-yl)-2-fluorophenyl)-1-((1-(cyclopropanecarbonyl)azetidin-3-yl)methyl)-4,4-dimethyl-1H-imidazol-5(4H)-one] | 1290 nM | > 10000 nM | 708 nM | 776 nM |
| CC1(C)N=C(c2ccc(-c3c[nH]c4ccccc34)cc2)N(C[C@@H]2CCN(C(=O)C3CC3)C2)C1=O [Compound 65, (R)-2-(4-(1H-indol-3-yl)phenyl)-1-((1-(cyclopropanecarbonyl)pyrrolidin-3-yl)methyl)-4,4-dimethyl-1H-imidazol-5(4H)-one] | 1260 nM | > 10000 nM | 263 nM | ~912 nM |

More lines, now with the values ahead:

| IC50 [1] | IC50 (A2780 ovarian cells; [3]) | IC50 (A2780 ovarian cells; [4]) | IC50 [2] | SMILES |
| --- | --- | --- | --- | --- |
| 407 nM | – | ~195 nM | 145 nM | CC1(C)N=C(c2ccc(-c3ccc4cccc(F)c4c3)cc2F)N(C[C@@H]2CCN(C(=O)C3CC3)C2)C1=O [Compound 67, (R)-1-((1-(cyclopropanecarbonyl)pyrrolidin-3-yl)methyl)-2-(2-fluoro-4-(8-fluoronaphthalen-2-yl)phenyl)-4,4-dimethyl-1H-imidazol-5(4H)-one] |
| 135 nM | > 10000 nM | 24.5 nM | 11 nM | Cn1cc(-c2ccc(-c3ccc(C4=NC(C)(C)C(=O)N4CC4CN(C(=O)C5(C)CC5)C4)c(F)c3)cc2)cn1 [Compound 70] |
| 295 nM | 7760 nM | ~25.7 nM | 26.9 nM | CC1(C(=O)N2CC(CN3C(=O)C(C)(C)N=C3c3ccc(-c4ccc5cc(F)ccc5c4)cc3F)C2)CC1 [Compound 72, 2-(2-fluoro-4-(6-fluoronaphthalen-2-yl)phenyl)-4,4-dimethyl-1-((1-(1-methylcyclopropanecarbonyl)azetidin-3-yl)methyl)-1H-imidazol-5(4H)-one] |
| 398 nM | > 10000 nM | 13.5 nM | 18.6 nM | Cn1ncc2cc(-c3ccc(C4=NC(C)(C)C(=O)N4C[C@@H]4CCN(C(=O)C5(C)CC5)C4)c(F)c3)ccc21 [Compound 73, (R)-2-(2-fluoro-4-(1-methyl-1H-indazol-5-yl)phenyl)-4,4-dimethyl-1-((1-(1-methylcyclopropanecarbonyl)pyrrolidin-3-yl)methyl)-1H-imidazol-5(4H)-one] |
| 11.5 nM | > 10000 nM | 3.89 nM | ~8.32 nM | Cn1cc(-c2ccc(-c3ccc(C4=NC(C)(C)C(=O)N4C[C@@H]4CCN(C(=O)C5(C)CC5)C4)c(F)c3)cc2)cn1 [Compound 74, (R)-2-(3-fluoro-4′-(1-methyl-1H-pyrazol-4-yl)-[1,1′-biphenyl]-4-yl)-4,4-dimethyl-1-((1-(1-methylcyclopropanecarbonyl)pyrrolidin-3-yl)methyl)-1H-imidazol-5(4H)-one] |
| 1170 nM | > 10000 nM | 316 nM | 112 nM | Cc1cc(-c2ccc3c(cnn3C)c2)ccc1C1=NC(C)(C)C(=O)N1CC1CN(C(=O)C2(C)CC2)C1 [Compound 77, 4,4-dimethyl-2-(2-methyl-4-(1-methyl-1H-1-indazol-5-yl)phenyl)-1-((1-(1-methylcyclopropanecarbonyl)azetidin-3-yl)methyl)-1H-imidazol-5(4H)-one] |
| 3090 nM | > 10000 nM | 537 nM | 447 nM | Cn1ncc2cc(-c3ccc(C4=NC(C)(C)C(=O)N4CC4CN(C(=O)C5(O)CC5)C4)c(F)c3)ccc21 [Compound 78, 2-(2-fluoro-4-(1-methyl-1H-indazol-5-yl)phenyl)-1-((1-(1-hydroxycyclopropanecarbonyl)azetidin-3-yl)methyl)-4,4-dimethyl-1H-imidazol-5(4H)-one] |
